target: T1, Glucocorticoid receptor (Homo sapiens, UniProt P04150); test: Briefly, purified human recombinant full-length glucocorticoid receptor (2 nM) was mixed with fluorescently labeled glucocorticoid (1 nM Fluormone GS Red) in the presence or absence of test compound. After two hour incubation at room temperature in the dark, the fluorescence polarization (FP) of the samples was measured. […] Test compounds were analyzed in the concentration range from 8.5E-05 μM to 5 μM. Binding Assay (II):In order to measure the binding of compounds on the glucocorticoid receptor a commercially available kit was used (Glucocorticoid receptor competitor assay kit, PanVera Co., Madison, Wis., P2816). Briefly, a cell lysate containing recombinantly expressed human full-length glucocorticoid receptor was mixed with a fluorescently labeled glucocorticoid (1 nM Fluormone GS1) in the presence or absence of test compound. After one hour at room temperature, the fluorescence polarization (FP) of the samples were measured. […] An appropriate cell lysate or purified NHR is used as the source of the NHR. The fluorescent probe and unlabeled competitor are appropriate for the specific NHR, i.e., are ligands for the specific NHR.
T1 sequence (P04150 whole entry): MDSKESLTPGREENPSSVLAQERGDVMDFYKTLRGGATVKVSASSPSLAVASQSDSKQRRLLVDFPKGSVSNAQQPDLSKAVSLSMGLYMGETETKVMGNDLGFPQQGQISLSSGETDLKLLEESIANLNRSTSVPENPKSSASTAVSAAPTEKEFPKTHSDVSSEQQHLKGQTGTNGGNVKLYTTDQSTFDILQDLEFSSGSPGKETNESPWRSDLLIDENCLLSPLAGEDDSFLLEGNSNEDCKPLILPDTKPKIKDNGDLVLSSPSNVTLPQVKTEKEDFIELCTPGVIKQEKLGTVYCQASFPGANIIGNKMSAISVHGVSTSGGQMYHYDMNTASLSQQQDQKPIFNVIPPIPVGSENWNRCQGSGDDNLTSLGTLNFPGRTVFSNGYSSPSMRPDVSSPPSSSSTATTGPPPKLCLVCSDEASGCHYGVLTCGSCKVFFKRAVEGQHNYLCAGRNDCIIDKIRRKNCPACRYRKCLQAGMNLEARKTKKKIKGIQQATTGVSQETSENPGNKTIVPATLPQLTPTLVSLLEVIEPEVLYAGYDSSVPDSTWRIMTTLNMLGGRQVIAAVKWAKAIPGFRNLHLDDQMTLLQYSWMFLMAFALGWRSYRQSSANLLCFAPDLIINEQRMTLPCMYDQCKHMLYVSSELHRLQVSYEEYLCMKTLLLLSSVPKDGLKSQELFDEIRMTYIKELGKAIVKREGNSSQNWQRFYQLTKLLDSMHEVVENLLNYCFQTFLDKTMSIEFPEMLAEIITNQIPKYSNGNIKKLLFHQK

SMILES | Ki
CC(=O)NC(=O)C(C)(C)[C@@H]1c2ccc(-c3ccc(C(=O)N(C)C)cc3)nc2Oc2c(F)cccc21 | 93.5 nM
CC(C)(C(=O)NC(N)=O)[C@H]1c2ccccc2Oc2nc(-c3ccc(C(=O)N4CCOCC4)cc3)ccc21 | 1.81 nM
CNC(=O)NC(=O)C(C)(C)[C@@H]1c2ccc(-c3ccc(C(C)(C)O)cc3)nc2Oc2c(F)cccc21 | 1.42 nM
CC(=O)NC(=O)C(C)(C)[C@H]1c2ccccc2Oc2nc(-c3ccc(C(=O)N4CCOCC4)cc3)ccc21 | 7.01 nM
COc1ccc2c(c1)Oc1ccccc1[C@@H]2C(C)(C)C(=O)NC(N)=O | 8.57 nM
CC(C)(O)c1ccc(-c2ccc3c(n2)Oc2c(F)cccc2[C@@H]3C(C)(C)C(=O)NC(N)=O)cc1 | 0.32 nM
COC(=O)NC(=O)C(C)(C)[C@@H]1c2ccc(-c3ccc(C(=O)OC)cc3)nc2Oc2c(F)cccc21 | 5.28 nM
CC(C)(C(=O)NC(N)=O)[C@@H]1c2ccc(-c3ccc(C(=O)N4CCC4)cc3)nc2Oc2c(F)cccc21 | 0.93 nM
CC(C)(C(=O)NC(=O)NCCO)[C@@H]1c2ccc(-c3ccc(C(=O)N4CCOCC4)cc3)nc2Oc2c(F)cccc21 | 61.7 nM
CC(C)NC(=O)NC(=O)C(C)(C)[C@@H]1c2ccc(-c3ccc(C(=O)N4CCOCC4)cc3)nc2Oc2c(F)cccc21 | 32.4 nM
CC(C)(O)c1ccc(-c2ccc3c(n2)Oc2c(F)cccc2[C@@H]3C(C)(C)C(=O)NC(=O)NCCO)cc1 | 25.1 nM
CC(C)(O)CNC(=O)NC(=O)C(C)(C)[C@@H]1c2ccc(-c3ccc(C(=O)N4CCOCC4)cc3)nc2Oc2c(F)cccc21 | 87.1 nM
CC(C)S(=O)(=O)c1ccc(-c2ccc3c(n2)Oc2ccccc2[C@@H]3C(C)(C)C(=O)NC(N)=O)cc1 | 0.58 nM
CNC(=O)NC(=O)C(C)(C)[C@@H]1c2ccc(Cl)nc2Oc2c(F)cccc21 | 37.5 nM
CCC(=O)NC(=O)C(C)(C)[C@@H]1c2ccc(-c3ccc(C(=O)N4CCOCC4)cc3)nc2Oc2c(F)cccc21 | 66.5 nM
CC(C)(O)CNC(=O)NC(=O)C(C)(C)[C@@H]1c2ccc(-c3ccc(C(C)(C)O)cc3)nc2Oc2c(F)cccc21 | 20.8 nM
CC(C)(C(=O)NC(=O)N1CCOCC1)[C@@H]1c2ccc(-c3ccc(C(=O)N4CCOCC4)cc3)nc2Oc2c(F)cccc21 | 171 nM

Reference: ChEMBL document CHEMBL5725882, “Imide and acylurea derivatives as modulators of the glucocorticoid receptor” (2017)
